Experimental findings from patent US9174974B2, “Macrocyclic factor VIIa inhibitors” (BRISTOL-MYERS SQUIBB COMPANY, priority 2012, dated 2015) are described below.

Read-outs that look alike come from different tables or passages of the source.

The target in one test is tissue kallikrein (HK1) (Homo sapiens (Human), UniProt P06870). In words: Tissue kallikrein-1 (HK1) Ki, fluorogenic substrate assay. In kind it is biochemical. The note with it: 37° C.
Another test concerns the target human FVIIa (Homo sapiens (Human), UniProt P08709). The experiment in a line: FVIIa Ki (37° C.), FVIIa-Xase assay. In kind it is biochemical. The note with it: for Ki(HK1)/Ki(FVIIa): selectivity ratio, tissue kallikrein (HK1) vs FVIIa.

Sequence of human FVIIa (P08709 61-212): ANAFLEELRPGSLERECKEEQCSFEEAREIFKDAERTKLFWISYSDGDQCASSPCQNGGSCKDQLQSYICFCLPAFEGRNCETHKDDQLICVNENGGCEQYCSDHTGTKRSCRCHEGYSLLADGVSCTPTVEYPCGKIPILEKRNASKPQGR
Sequence of human FVIIa (P08709 213-466): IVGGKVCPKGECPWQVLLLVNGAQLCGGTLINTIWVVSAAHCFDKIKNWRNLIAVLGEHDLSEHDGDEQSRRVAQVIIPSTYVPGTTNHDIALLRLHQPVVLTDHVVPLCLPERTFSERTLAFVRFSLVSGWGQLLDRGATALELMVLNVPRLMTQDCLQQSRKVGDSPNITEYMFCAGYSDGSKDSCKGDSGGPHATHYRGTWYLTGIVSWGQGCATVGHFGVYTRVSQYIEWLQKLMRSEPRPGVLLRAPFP
Sequence of human FVIIa (P13726 33-295 partner): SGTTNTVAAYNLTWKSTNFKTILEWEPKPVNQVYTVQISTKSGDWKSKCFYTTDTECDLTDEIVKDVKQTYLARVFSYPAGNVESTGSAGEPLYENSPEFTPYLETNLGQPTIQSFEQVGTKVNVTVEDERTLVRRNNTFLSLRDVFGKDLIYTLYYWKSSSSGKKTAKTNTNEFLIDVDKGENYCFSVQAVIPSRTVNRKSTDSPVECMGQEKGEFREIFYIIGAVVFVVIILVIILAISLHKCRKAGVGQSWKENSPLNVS
Sequence of tissue kallikrein (HK1) (P06870 25-262): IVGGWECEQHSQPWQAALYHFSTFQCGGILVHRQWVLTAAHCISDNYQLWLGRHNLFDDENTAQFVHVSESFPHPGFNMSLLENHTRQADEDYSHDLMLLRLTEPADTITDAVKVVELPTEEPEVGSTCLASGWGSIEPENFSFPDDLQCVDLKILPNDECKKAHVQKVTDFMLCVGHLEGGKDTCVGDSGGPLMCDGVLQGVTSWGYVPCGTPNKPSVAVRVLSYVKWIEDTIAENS

As a reminder, the Ki is the dissociation constant of the complex between target and ligand, obtained from inhibition or displacement. For the compound `Cc1cc2ccc1[C@@H](C)COC(=O)Nc1cc(F)c(O[C@H]3CCOC3)c(c1)CN(C)C(=O)C2Nc1ccc2c(N)nccc2c1.O=C(O)C(F)(F)F` (stereo partly drawn) [Example 39, (15R)-2-[(1-Aminoisoquinolin-6-yl)amino]-8-fluoro-4,15,20-trimethyl-7-[(3S)-oxolan-3-yloxy]-13-oxa-4,11-diazatricyclo[14.2.2.1^6,10]henicosa-1(18),6,8,10 (21),16,19-hexaene-3,12-dione; trifluoroacetic acid], the Ki at tissue kallikrein (HK1) worked out at 100 nM; at human FVIIa (read-out: FVIIa Ki, nM 37° C.), 0.02 nM. Further, the “Ki(HK1)/Ki(FVIIa)” value at human FVIIa worked out at 5000.
The corresponding values for `Cc1cc2ccc1[C@@H](C)COC(=O)Nc1cc(F)c(O[C@@H]3COC[C@@H]3O)c(c1)CN(C)C(=O)[C@@H]2Nc1ccc2c(N)nccc2c1.O=C(O)C(F)(F)F` [Example 27, (2R,15R)-2-[(1-Aminoisoquinolin-6-yl)amino]-8-fluoro-7-{[(3R,4S)-4-hydroxyoxolan-3-yl]oxy}-4,15,17-trimethyl-13-oxa-4,11-diazatricyclo[14.2.2.1^6,10]henicosa-1(18),6,8,10 (21),16,19-hexaene-3,12-dione; trifluoroacetic acid] are 320 nM, 0.23 nM and 1391.
In the case of `CCS(=O)(=O)c1ccc2cc1CN(C)C(=O)[C@H](Nc1ccc3c(N)ncc(F)c3c1)c1ccc(c(C)c1)[C@@H](C)COC(=O)N2.O=C(O)C(F)(F)F` [Example 3, (2R,15R)-2-[(1-Amino-4-fluoroisoquinolin-6-yl)amino]-7-(ethanesulfonyl)-4,15,17-trimethyl-13-oxa-4,11-diazatricyclo[14.2.2.1^6,10]henicosa-1(18),6,8,10 (21),16,19-hexaene-3,12-dione; trifluoroacetic acid], the Ki at tissue kallikrein (HK1) came to 270 nM; on human FVIIa (read-out: FVIIa Ki, nM 37° C.), 2.3 nM. In addition, the “Ki(HK1)/Ki(FVIIa)” value on human FVIIa is reported as 117.
The corresponding values for `Cc1cc2ccc1[C@@H](C)COC(=O)Nc1cc(F)c(OCCN3CCCC3=O)c(c1)CN(C)C(=O)[C@@H]2Nc1ccc2c(N)nccc2c1.O=C(O)C(F)(F)F` [Example 35, (2R,15R)-2-[(1-Aminoisoquinolin-6-yl)amino]-8-fluoro-4,15,20-trimethyl-7-[2-(2-oxopyrrolidin-1-yl)ethoxy]-13-oxa-4,11-diazatricyclo[14.2.2.16,10]henicosa-1(18),6,8,10 (21),16,19-hexaene-3,12-dione; trifluoroacetic acid] are 210 nM, 0.14 nM and 1500.
For `Cc1cc2ccc1[C@@H](C)COC(=O)Nc1ccc([C@@H](CC(F)F)C(=O)O)c(c1)CN(C)C(=O)[C@@H]2Nc1ccc2c(N)ncc(F)c2c1.O=C(O)C(F)(F)F` [Example 10, (2R)-2-[(2R,15R)-2-[(1-Amino-4-fluoroisoquinolin-6-yl)amino]-4,15,17-trimethyl-3,12-dioxo-13-oxa-4,11-diazatricyclo[14.2.2.1^6,10]henicosa-1(18),6,8,10 (21),16,19-hexaen-7-yl]-4,4-difluorobutanoic acid; trifluoroacetic acid], the Ki on tissue kallikrein (HK1) was found to be 320 nM; at human FVIIa (read-out: FVIIa Ki, nM 37° C.) it was 0.9 nM. Besides, the “Ki(HK1)/Ki(FVIIa)” value on human FVIIa turned out to be 356.
As for `Cc1cc2ccc1[C@@H](C(F)F)COC(=O)Nc1ccc(S(=O)(=O)C3CC3)c(c1)CN(C)C(=O)[C@@H]2Nc1ccc2c(N)nccc2c1.O=C(O)C(F)(F)F` [Example 16, (2R,15R)-2-[(1-Aminoisoquinolin-6-yl)amino]-7-(cyclopropanesulfonyl)-15-(difluoromethyl)-4,17-dimethyl-13-oxa-4,11-diazatricyclo[14.2.2.1^6,10]henicosa-1(18),6,8,10 (21),16,19-hexaene-3,12-dione; trifluoroacetic acid], the Ki was determined as 180 nM on tissue kallikrein (HK1) and 0.5 nM at human FVIIa (read-out: FVIIa Ki, nM 37° C.). Besides, the “Ki(HK1)/Ki(FVIIa)” value at human FVIIa is listed as 360.
`Cc1cc2ccc1[C@@H](C)COC(=O)Nc1cc(F)c(OCC3(C#N)CC3)c(c1)CN(C)C(=O)[C@@H]2Nc1ccc2c(N)nccc2c1.O=C(O)C(F)(F)F` [Example 18, 1-({[(2R,15R)-2-[(1-Aminoisoquinolin-6-yl)amino]-8-fluoro-4,15,20-trimethyl-3,12-dioxo-13-oxa-4,11-diazatricyclo[14.2.2.1^6,10]henicosa-1(18),6,8,10 (21),16,19-hexaen-7-yl]oxy}methyl)cyclopropane-1-carbonitrile; trifluoroacetic acid]: the inhibition constant Ki at tissue kallikrein (HK1) came to 490 nM; at human FVIIa, 0.44 nM. Also, at human FVIIa, the “Ki(HK1)/Ki(FVIIa)” value came out at 1114.
In the case of `Cc1cc2ccc1[C@@H](C)COC(=O)Nc1cc(F)c(S(=O)(=O)C3CC3)c(c1)CN(C)C(=O)[C@@H]2Nc1cc(F)c2c(N)nccc2c1.O=C(O)C(F)(F)F` [Example 11, (2R,15R)-2-[(1-Amino-8-fluoroisoquinolin-6-yl)amino]-7-(cyclopropanesulfonyl)-8-fluoro-4,15,17-trimethyl-13-oxa-4,11-diazatricyclo[14.2.2.1^6,10]henicosa-1(18),6,8,10 (21),16,19-hexaene-3,12-dione; trifluoroacetic acid], the Ki at tissue kallikrein (HK1) turned out to be 96 nM; on human FVIIa (read-out: FVIIa Ki, nM 37° C.), 0.66 nM. For the same compound, the “Ki(HK1)/Ki(FVIIa)” value on human FVIIa amounted to 145.
The corresponding values for `COC[C@H](C)S(=O)(=O)c1ccc2cc1CN(C)C(=O)[C@H](Nc1ccc3c(N)ncc(F)c3c1)c1ccc(c(C)c1)[C@@H](C)COC(=O)N2.O=C(O)C(F)(F)F` [Example 6, (2R,15R)-2-[(1-Amino-4-fluoroisoquinolin-6-yl)amino]-7-[(2S)-1-methoxypropane-2-sulfonyl]-4,15,17-trimethyl-13-oxa-4,11-diazatricyclo[14.2.2.1^6,10]henicosa-1(18),6,8,10 (21),16,19-hexaene-3,12-dione; trifluoroacetic acid] are 550 nM, 1.8 nM and 306.
The matching figures for `Cc1cc2ccc1[C@@H](C)COC(=O)Nc1cc(F)c(O[C@@H](C)CO)c(c1)CN(C)C(=O)[C@@H]2Nc1ccc2c(N)nccc2c1.O=C(O)C(F)(F)F` [Example 33, (2R,15R)-2-[(1-Aminoisoquinolin-6-yl)amino]-8-fluoro-7-{[(2S)-1-hydroxypropan-2-yl]oxy}-4,15,20-trimethyl-13-oxa-4,11-diazatricyclo[14.2.2.16,10]henicosa-1(18),6,8,10 (21),16,19-hexaene-3,12-dione; trifluoroacetic acid]: 50 nM, 0.14 nM and 357.
The matching figures for `CCS(=O)(=O)c1ccc2cc1CNC(=O)[C@H](Nc1ccc3c(N)nccc3c1)c1cc(C)c(c(C)c1)CCOC(=O)N2` [Comparator 3, reference compound]: 70 nM, 1.1 nM and 64.
As for `COC[C@H](C)Oc1c(F)cc2cc1CN(C)C(=O)[C@H](Nc1ccc3c(N)nccc3c1)c1ccc(c(C)c1)[C@@H](C)COC(=O)N2.O=C(O)C(F)(F)F` [Example 37, (2R,15R)-2-[(1-Aminoisoquinolin-6-yl)amino]-8-fluoro-7-{[(2S)-1-methoxypropan-2-yl]oxy}-4,15,20-trimethyl-13-oxa-4,11-diazatricyclo[14.2.2.1^6,10]henicosa-1(18),6,8,10 (21),16,19-hexaene-3,12-dione; trifluoroacetic acid], the Ki came out at 190 nM on tissue kallikrein (HK1) and 0.14 nM on human FVIIa (read-out: FVIIa Ki, nM 37° C.). Also, the “Ki(HK1)/Ki(FVIIa)” value on human FVIIa was 1357.
For `Cc1cc2ccc1[C@@H](C)COC(=O)Nc1cc(F)c(OC(CF)CF)c(c1)CN(C)C(=O)[C@@H]2Nc1ccc2c(N)nccc2c1.O=C(O)C(F)(F)F` [Example 32, (2R,15R)-2-[(1-Aminoisoquinolin-6-yl)amino]-7-[(1,3-difluoropropan-2-yl)oxy]-8-fluoro-4,15,20-trimethyl-13-oxa-4,11-diazatricyclo[14.2.2.1^6,10]henicosa-1(18),6,8,10 (21),16,19-hexaene-3,12-dione; trifluoroacetic acid], the Ki on tissue kallikrein (HK1) came to 41 nM; on human FVIIa (read-out: FVIIa Ki, nM 37° C.) it was 0.15 nM. In addition, at human FVIIa, the “Ki(HK1)/Ki(FVIIa)” value turned out to be 273.
The corresponding values for `CC(C)S(=O)(=O)c1ccc2cc1CN(C)C(=O)[C@H](Nc1cc(F)c3c(N)nccc3c1)c1ccc(cc1)CCOC(=O)N2` [Comparator 1, reference compound] are 3330 nM, 38 nM and 87.
`COc1cc2c(F)cc1[C@@H](C)COC(=O)Nc1ccc(S(=O)(=O)C3CC3)c(c1)CN(C)C(=O)[C@@H]2Nc1cc2ccnc(N)c2cc1F.O=C(O)C(F)(F)F` [Example 25, (2R,15R)-2-[(1-Amino-7-fluoroisoquinolin-6-yl)amino]-7-(cyclopropanesulfonyl)-18-fluoro-20-methoxy-4,15-dimethyl-13-oxa-4,11-diazatricyclo[14.2.2.1^6,10]henicosa-1(18),6,8,10 (21),16,19-hexaene-3,12-dione; trifluoroacetic acid]: the Ki on tissue kallikrein (HK1) amounted to 270 nM; on human FVIIa (read-out: FVIIa Ki, nM 37° C.), 0.25 nM. The “Ki(HK1)/Ki(FVIIa)” value on human FVIIa worked out at 1080.
Take `CCN(Cc1nccs1)C(=O)c1ccc2cc1CN(C)C(=O)[C@H](Nc1ccc3c(N)nccc3c1)c1cc(C)c(c(C)c1)C(F)(F)COC(=O)N2.O=C(O)C(F)(F)F` [Example 4, (2R)-2-[(1-Aminoisoquinolin-6-yl)amino]-N-ethyl-15,15-difluoro-4,17,20-trimethyl-3,12-dioxo-N-(1,3-thiazol-2-ylmethyl)-13-oxa-4,11-diazatricyclo[14.2.2.1^6,10]henicosa-1(18),6,8,10 (21),16,19-hexaene-7-carboxamide; trifluoroacetic acid]: the Ki on tissue kallikrein (HK1) was found to be 300 nM.
For `C[C@H]1COC(=O)Nc2cccc(c2)CNC(=O)C(Nc2ccc3c(N)nccc3c2)c2ccc1cc2` (stereo partly drawn) [Comparator 4, reference compound], the Ki at human FVIIa (read-out: FVIIa Ki, nM 37° C.) is greater than 140 nM.
For `Cc1cc2ccc1[C@@H](CF)COC(=O)Nc1ccc(S(=O)(=O)C3CC3)c(c1)CN(C)C(=O)[C@@H]2Nc1ccc2c(N)nccc2c1.O=C(O)C(F)(F)F` [Example 24, (2R,15R)-2-[(1-Aminoisoquinolin-6-yl)amino]-7-(cyclopropanesulfonyl)-15-(fluoromethyl)-4,17-dimethyl-13-oxa-4,11-diazatricyclo[14.2.2.1^6,10]henicosa-1(18),6,8,10 (21),16,19-hexaene-3,12-dione; trifluoroacetic acid], the Ki at tissue kallikrein (HK1) was determined as 200 nM.
